Paper PMC7076710, “Synthesis, Identification, and Structure–Activity Relationship Analysis of GATA4 and NKX2-5 Protein–Protein Interaction Modulators” (Journal of Medicinal Chemistry, 2019)
Like-named read-outs stand apart in the source and are kept apart here.

What was measured:
Format in all cases: cell-based
[1] = target: T1, GATA4–NKX2-5 transcriptional synergy (Mus musculus, UniProt P42582+Q08369); experiment: GATA4–NKX2-5 transcriptional synergy luciferase reporter assay (3xNKE reporter, COS-1 cells); settings: COS-1, luciferase reporter activity relative to control
T1 construct: expressed in transfected cells; host or cells: COS-1

[2] = target: T2, NKX2-5 transcriptional activity (Mus musculus, UniProt P42582); experiment: NKX2-5 luciferase reporter assay (3xNKE reporter, COS-1 cells); settings: COS-1, luciferase reporter activity relative to control; for activity at 3 µM: read-out: NKX.3µM; for activity at 10 µM: read-out: NKX.10µM
T2 construct: expressed in transfected cells; host or cells: COS-1

[3] = target: T3, GATA4 transcriptional activity (Mus musculus, UniProt Q08369); experiment: GATA4 luciferase reporter assay (tandem GATA-site reporter, COS-1 cells); settings: for activity at 3 µM / activity at 10 µM: COS-1, luciferase reporter activity relative to control
T3 construct: expressed in transfected cells; host or cells: COS-1

[4] = tested on: rat BNP promoter activity in neonatal rat ventricular myocytes; experiment: BNP promoter luciferase reporter in neonatal cardiomyocytes with or without endothelin-1
Experimental: Five compounds (GATA4–NKX2-5 synergy inhibitors 1, 61, and 65; the synergy activator 2; and the NKX2-5 activity inhibitor 47c) were selected for studies in neonatal cardiomyocytes, which were treated with endothelin-1 (ET-1), a well-established hypertrophic agonist that activates the gene expression of both ANP and BNP (Figure 4). The myocytes were transfected with construct containing −534/+4 proximal region of rat BNP promoter with GATA4 and NKX2-5 binding sites in front of luciferase before exposure to compounds and ET-1, which was added 1 h after the compounds.
Figure 4 Effects of the compounds 1, 2, 47c, 61, and 65 on BNP gene activation in cardiomyocytes. Neonatal cardiomyocytes were transfected with rat BNP luciferase reporter for 24 h. The cells were exposed to compounds and 1 h later to endothelin-1 (ET-1) for 24 h. The results are expressed as +SD (n = 3 or 9 for DMSO groups). ***P < 0.001 vs DMSO; **P < 0.01 vs DMSO; *P < 0.05 vs DMSO (one-way ANOVA followed by Tukey’s HSD or Welch ANOVA followed by Games–Howell); ^###P < 0.001 vs DMSO, no stimulus (independent samples Student’s t test).
The plasmids expressing mouse GATA4 protein, pMT2-GATA4, and empty pMT2 were gifts from D. B. Wilson (Department of Pediatrics, St. Louis Children’s Hospital, St. Louis, MO).[44] The plasmids expressing mouse NKX2-5 protein, pMT2-NKX2-5, have been described earlier.[28] The luciferase reporter plasmid used in GATA4–NKX2-5 transcriptional synergy assay and NKX transcriptional assay, pGL3-3xHA, contains three high affinity binding sites for NKX2-5.[28] The luciferase reporter plasmid used in GATA transcriptional assay, NP-112, contains tandem GATA-sites and minimal promoter of rat brain natriuretic peptide (BNP) gene.[45] The pGL3-BNP luciferase reporter containing −534/+4 bp rat BNP proximal promoter described previously was used in hypertrophy assay.[46]
The neonatal rat ventricular myocytes were isolated from 2- to 3-day-old Wistar rats, as described earlier.[29],[32] Rat pups were acquired from the experimental animal facility of the University of Helsinki with an internal use license (KEK17-012). Animals were housed in standard conditions, and their handling and all procedures were carried out in accordance with University of Helsinki institutional guidelines, which conform to the National Research Council (U.S.) Guide for the Care and Use of Laboratory Animals.[47] The cells were seeded at 50 000 cells/well in Isoplate-96 microplates (PerkinElmer, Turku, Finland) and cultured for 18–20 h with Dulbecco’s modified Eagle medium (DMEM)/F12 culture medium containing 2.5 mM L-glutamine, supplemented with 100 IU/mL penicillin–streptomycin and 10% fetal bovine serum (all from Gibco, Thermo Scientific). Transfections were carried out for 24 h in serum free media (CSFM; DMEM/F12, 2.5 mg/mL bovine serum albumin, 1 μM insulin, 2.5 mM L-glutamine, 32 nM selenium, 2.8 mM sodium pyruvate, 5.64 μg/mL transferrin, 1 nM T3, and 100 IU/mL PS) by using 100 ng of pGL3-BNP luciferase plasmid per well in a 1:3 ratio of DNA/transfection reagent (Fugene 6, Promega). […] After 24 h, the luminescence was measured as above.
Results from cardiomyocyte experiments are expressed as mean + SD from at least three independent experiments. Data were analyzed using IBM SPSS Statistics 24 software. […] Significance between ET-1 and DMSO samples was analyzed with independent samples Student’s t test. […]

COS-1 cells [5] = experiment: LDH assay (necrosis)
COS-1 cells [6] = experiment: MTT assay (cell viability); settings: for MTT.1µM / MTT.3µM / MTT.10µM / MTT.30µM: cell viability

T3 sequence (Q08369 whole entry): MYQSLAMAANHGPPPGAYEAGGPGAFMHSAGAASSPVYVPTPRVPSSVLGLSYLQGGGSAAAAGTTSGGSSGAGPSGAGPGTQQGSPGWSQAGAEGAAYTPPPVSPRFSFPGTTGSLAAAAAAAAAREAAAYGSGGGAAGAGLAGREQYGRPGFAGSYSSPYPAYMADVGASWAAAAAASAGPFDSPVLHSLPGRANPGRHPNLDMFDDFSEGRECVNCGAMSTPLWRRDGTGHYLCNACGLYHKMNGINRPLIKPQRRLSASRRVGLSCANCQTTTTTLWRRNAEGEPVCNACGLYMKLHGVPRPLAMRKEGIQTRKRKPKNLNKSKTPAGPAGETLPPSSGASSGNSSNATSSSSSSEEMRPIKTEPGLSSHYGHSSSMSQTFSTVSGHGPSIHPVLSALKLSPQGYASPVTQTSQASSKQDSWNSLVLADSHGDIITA
T1 sequence (Q08369 whole entry): as above
T1 sequence (P42582 whole entry): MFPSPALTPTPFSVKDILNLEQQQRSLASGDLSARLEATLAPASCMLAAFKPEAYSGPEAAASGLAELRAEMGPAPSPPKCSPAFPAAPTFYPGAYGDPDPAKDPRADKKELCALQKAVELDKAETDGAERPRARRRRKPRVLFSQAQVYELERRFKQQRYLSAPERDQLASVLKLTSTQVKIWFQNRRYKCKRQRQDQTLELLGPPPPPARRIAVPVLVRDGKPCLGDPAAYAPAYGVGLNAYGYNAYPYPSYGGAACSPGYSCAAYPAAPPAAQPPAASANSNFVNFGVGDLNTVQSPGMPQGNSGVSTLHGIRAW
T2 sequence (P42582 whole entry): as above

Molecule	activity at 3 µM ([1]; 3 µM) [%]	activity at 10 µM ([1]; 10 µM) [%]	activity at 3 µM ([2]; 3 µM) [%]	activity at 3 µM ([3]; 3 µM) [%]	LDH.1µM (COS-1 cells [5])	LDH.3µM (COS-1 cells [5])	LDH.10µM (COS-1 cells [5])	LDH.30µM (COS-1 cells [5])	MTT.1µM (COS-1 cells [6])	MTT.3µM (COS-1 cells [6])	MTT.10µM (COS-1 cells [6])	MTT.30µM (COS-1 cells [6])	activity at 10 µM ([2]; 10 µM) [%]	further results
CCN(c1ccc(NC(=O)c2cnsc2)cc1)C(C)C [Compound 61]														activity at 3 µM ([1]; compound 3 µM): 28.8%; activity at 10 µM ([1]; compound 10 µM): 11.6%; activity at 3 µM ([2]; compound 3 µM): 38.2%; activity at 10 µM ([2]; compound 10 µM): 10.7%; activity at 3 µM ([3]; compound 3 µM): 71.1%; activity at 10 µM ([3]; compound 10 µM): 20.4%; inhibition of the ET-1 hypertrophic response, BNP gene activity (in words) ([4]; 30 μM, ET-1 added 1 h after compound): the most potent inhibitor of the hypertrophic response; effect on BNP promoter activity in cardiomyocytes (in words) ([4]; neonatal cardiomyocytes, 24 h): most strongly inhibited the BNP promoter activity
ET-1: endothelin-1, a well-established hypertrophic agonist that activates the gene expression of both ANP and BNP [reference compound]														increase in BNP gene activity ([4]; neonatal cardiomyocytes, 24 h): ~3 fold
CCN(CC)c1ccc(NC(=O)c2cc(C)oc2-c2ccccc2)cc1 [Compound 54]	46	35.4	60.8	72.4	1.02	0.88	-0.26	3.27	97.73	83.61	74.16	71.09		toxicity class in the MTT assay (COS-1 cells [6]; 24-h exposure, classified at 10 μM): most toxic
Cc1onc(-c2ccccc2)c1C(=O)Nc1ccc2oc(-c3ccccc3)cc(=O)c2c1 [Compound 4g]	62.6		85.2	40.2	-0.29	0.38	-0.94	-0.1	109.72	101.99	88.31	82.48		GATA4 (% of control) Mean ± SD ([3]; 10 μM, COS-1 cells, 24 h): 66 % of control
COc1ccc(-c2cc(N)nn2C(=O)c2c(-c3ccccc3)noc2C)cc1 [SI137, [3-Amino-5-(4-methoxyphenyl)-1H-pyrazol-1-yl] (5-methyl-3-phenylisoxazol-4-yl) methanone]	90.6	72.1	88	85.3	3.49	2.98	0.2	-2.71	100.57	105.12	104.9	96.15	65.2	activity at 10 µM ([3]; 10 µM): 76.5%
CCN(CC)c1ccc(NC(=O)c2c(C)noc2-c2ccccc2)cc1 [Compound 65]	51.9		53.5	90	0.39	-0.82	-1.85	-0.07	96.79	83.46	81.39	84.64		activity at 10 µM ([3]; 10 µM): 64.2%
CCN(CC)c1ccc(NC(=O)c2c(-c3ccccc3)nnn2CCc2ccccc2)cc1 [Compound 71]	75.2	33	76	72.5	0.03	-0.62	-0.76	1.31	103.27	98.93	94.48	80.74	33.6	
CCN(CC)c1ccc(NC(=O)c2cnc(SC)n2-c2ccc(F)cc2)cc1 [Compound 47z]	67.6		91.1	91.4	0.94	1.33	-0.3	-0.25	102.53	95.99	96.05	93		
CC(=O)N(Cc1ccc(N(C)C)cc1)c1c(-c2ccccc2)noc1C [Compound 64]	40.2		62.1	59.6	0.55	-0.52	-0.2	-0.49	98.18	84.51	77.4	65.98	44.1	
CCN(c1ccc(NC(=O)c2c(-c3ccccc3)noc2C)cc1)C(C)C [Compound 4i, N-[4-[Ethyl(isopropyl)amino]phenyl]-5-methyl-3-phenylisoxazole-4-carboxamide]	64.9		55.3	84.1	0.82	0.18	-0.77	-0.17	100.09	98.4	87.88	85.16		
